Where two headings read alike, the source gives them in different places.
Biological target: T1, Zcchc11 enzyme (Homo sapiens, UniProt Q5TAX3)
T1 construct: made in house; host or cells: HEK293 cells (Zcchc11); E. coli Rosetta II (LIN28A)
T1 sequence (Q5TAX3 212-1420): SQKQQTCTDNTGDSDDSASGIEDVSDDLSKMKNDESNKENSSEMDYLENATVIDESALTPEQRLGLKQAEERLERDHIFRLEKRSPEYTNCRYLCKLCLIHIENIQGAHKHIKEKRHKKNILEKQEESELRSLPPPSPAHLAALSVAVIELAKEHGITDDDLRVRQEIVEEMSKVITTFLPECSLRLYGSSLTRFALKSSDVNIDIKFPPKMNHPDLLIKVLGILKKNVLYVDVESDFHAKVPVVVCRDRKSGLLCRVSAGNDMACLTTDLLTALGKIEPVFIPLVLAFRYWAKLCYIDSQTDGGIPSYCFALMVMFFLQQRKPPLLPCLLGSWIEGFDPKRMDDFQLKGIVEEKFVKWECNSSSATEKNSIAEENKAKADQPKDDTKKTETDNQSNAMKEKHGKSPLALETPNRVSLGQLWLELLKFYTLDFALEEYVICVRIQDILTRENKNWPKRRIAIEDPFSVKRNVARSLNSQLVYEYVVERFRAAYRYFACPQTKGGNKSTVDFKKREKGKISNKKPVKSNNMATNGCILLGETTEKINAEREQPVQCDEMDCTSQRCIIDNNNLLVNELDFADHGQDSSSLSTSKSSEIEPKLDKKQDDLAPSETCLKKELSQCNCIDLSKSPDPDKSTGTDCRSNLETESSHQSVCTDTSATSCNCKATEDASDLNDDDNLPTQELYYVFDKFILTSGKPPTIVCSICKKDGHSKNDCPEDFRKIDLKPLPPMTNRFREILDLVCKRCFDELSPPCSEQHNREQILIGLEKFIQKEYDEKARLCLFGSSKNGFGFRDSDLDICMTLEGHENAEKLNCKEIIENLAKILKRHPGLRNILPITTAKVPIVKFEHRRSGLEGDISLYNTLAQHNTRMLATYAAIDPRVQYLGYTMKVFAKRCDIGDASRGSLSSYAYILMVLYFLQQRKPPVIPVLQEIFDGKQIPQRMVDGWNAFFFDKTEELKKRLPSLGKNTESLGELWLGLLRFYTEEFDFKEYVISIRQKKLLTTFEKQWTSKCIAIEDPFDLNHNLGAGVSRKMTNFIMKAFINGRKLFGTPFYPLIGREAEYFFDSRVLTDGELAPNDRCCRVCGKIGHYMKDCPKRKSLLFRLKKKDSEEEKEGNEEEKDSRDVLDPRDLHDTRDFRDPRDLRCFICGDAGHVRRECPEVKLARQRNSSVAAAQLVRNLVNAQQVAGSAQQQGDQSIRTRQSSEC
Experiment: TUTase assay (Zcchc11 assay, Lin28a-dependent polyuridylation of pre-let-7)
Assay type: biochemical
Details: read-out: Potency Lin28a-dep Z11 IC50
How it was run: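 LIN28A (10 nM) in pH 7.3 HEPES/KCl/MgCl2/DTT buffer was mixed with serially diluted compound, then 0.2 nM truncated human Zcchc11 and 2 nM labeled pre-let-7 were added for 30 min at room temperature. UTP (5 uM) and quench probe (4 nM) then started the reaction. Linear early rates gave IC50 values.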

[1] = Lin28a-dependent Zcchc11 (Z11) TUTase activity
[2] = Lin28a-dependent Zcchc11 (Z11) TUTase assay

SMILES	IC50 [1] [nM]	IC50 [2] [nM]	also measured
O=C(O)c1cn(-c2ccc(Cl)c(O)c2)c2cc(N3CCC[C@@H]3COc3ncccc3Cl)c(Cl)cc2c1=O [Compound 126, (R)-6-chloro-1-(4-chloro-3-hydroxy-phenyl)-7-(2-(((3-chloropyridin-2-yl)oxy)methyl)pyrrolidin-1-yl)-4-oxo-1,4-dihydro-quinoline-3-carboxylic acid]	≤ 1000	–	–
Cc1ccc(F)c(OC[C@H]2C[C@H]3C[C@H]3N2c2cc3c(cc2F)c(=O)c(C(=O)O)cn3-c2ccc(N(C)C)nc2)n1 [Compound 344, 1-[6-(Dimethyl-amino)pyridin-3-yl]-6-fluoro-7-[(1R,3R,5R)-3-{[(3-fluoro-6-methylpyridin-2-yl)oxy]methyl}-2-azabicyclo [3.1.0]hexan-2-yl]-4-oxoquinoline-3-carboxylic acid]	≤ 1000	–	–
O=C(O)c1cn(-c2ccccc2)c2cc(N3CCC[C@@H]3COc3ncccc3Cl)c(Cl)cc2c1=O [Compound 109, (R)-6-chloro-7-(2-(((3-chloropyridin-2-yl)oxy)methyl)pyrrolidin-1-yl)-4-oxo-1-phenyl-1,4-dihydro-quinoline-3-carboxylic acid]	≤ 1000	–	–
COc1ccnc(OC[C@H]2C[C@H]3C[C@H]3N2c2cc3c(cc2Cl)c(=O)c(C(=O)O)cn3-c2ccc(N(C)C)nc2)c1F [Compound 196, 6-chloro-1-(6-(dimethyl-amino)pyridin-3-yl)-7-((1R,3R,5R)-3-(((3-fluoro-4-methoxy-pyridin-2-yl)oxy)methyl)-2-azabicyclo [3.1.0]hexan-2-yl)-4-oxo-1,4-dihydro-quinoline-3-carboxylic acid]	≤ 1000	–	–
O=C(O)c1cn(-c2ccccc2)c2cc(N3CCC[C@@H]3COc3ncccc3Cl)c(F)cc2c1=O [Compound 97, (R)-7-(2-(((3-chloro-pyridin-2-yl)oxy)methyl)pyrrolidin-1-yl)-6-fluoro-4-oxo-1-phenyl-1,4-dihydro-quinoline-3-carboxylic acid]	≤ 1000	–	–
CNC1CN(c2ccc(-n3cc(C(=O)O)c(=O)c4cc(Cl)c(N5CCC[C@@H]5COc5ncccc5Cl)cc43)cn2)C1 [Example 477, (R)-6-chloro-7-(2-(((3-chloropyridin-2-yl)oxy)methyl)pyrrolidin-1-yl)-1-(6-(3-(methyl-amino)azetidin-1-yl)pyridin-3-yl)-4-oxo-1,4-dihydroquinoline-3-carboxylic acid]	–	≤ 1000	–
O=C(O)c1cn(-c2ccccc2)c2c(F)c(N3CCC[C@H]3COc3ccccn3)c(F)cc2c1=O [a, (S)-6,8-difluoro-4-oxo-1-phenyl-7-(2-((pyridin-2-yloxy)methyl)pyrrolidin-1-yl)-1,4-dihydro-quinoline-3-carboxylic acid]	10000 to 50000	–	–
COc1ccnc(OC[C@H]2CCCN2c2cc3c(cc2Cl)c(=O)c(C(=O)O)cn3-c2ccc(N3CC(N(C)C)C3)nc2)c1Cl [Example 75, 6-chloro-7-[(2R)-2-{[(3-chloro-4-methoxypyridin-2-yl)oxy]methyl}pyrrolidin-1-yl]-1-{6-[3-(dimethylamino)azetidin-1-yl]pyridin-3-yl}-4-oxo-1,4-dihydroquinoline-3-carboxylic acid]	–	–	IC50 (LIN28A 10 nM, Zcchc11 0.2 nM, 5′-fluorescein pre-let-7 miRNA 2 nM, UTP 5 uM, room temperature, 30 minutes pre-incubation): ≤ 1000 nM
COc1ccc(Cl)c(OC[C@H]2C[C@H](NC(C)=O)CN2c2cc3c(cc2Cl)c(=O)c(C(=O)O)cn3-c2ccc(N3CC(N(C)C)C3)nc2)n1 [Example 637, 6-chloro-7-[(2R)-2-{[(3-chloro-6-methoxypyridin-2-yl)oxy]methyl}-4-acetamido-pyrrolidin-1-yl]-1-{6-[3-(dimethylamino)azetidin-1-yl]pyridin-3-yl}-4-oxo-1,4-dihydroquinoline-3-carboxylic acid]	–	≤ 1000	–
O=C(O)c1cn(-c2cc(F)cc(F)c2)c2cc(N3CCC[C@@H]3COc3ccccn3)c(F)cc2c1=O [Example 388, (R)-1-(3,5-difluorophenyl)-6-fluoro-4-oxo-7-(2-((pyridin-2-yloxy)methyl)pyrrolidin-1-yl)-1,4-dihydroquinoline-3-carboxylic acid]	–	1000 to 10000	–
COc1ccc(Cl)c(OC[C@H]2CC(c3cn[nH]c3)CN2c2cc3c(cc2F)c(=O)c(C(=O)O)cn3-c2ccc(N3CC(N(C)C)C3)nc2)n1 (stereo partly drawn) [Compound 352, 7-((2R)-2-(((3-chloro-6-methoxy-pyridin-2-yl)oxy)methyl)-4-(1H-pyrazol-4-yl)pyrrolidin-1-yl)-1-(6-(3-(dimethyl-amino)azetidin-1-yl)pyridin-3-yl)-6-fluoro-4-oxo-1,4-dihydro-quinoline-3-carboxylic acid compound with formic acid (1:1)]	≤ 1000	–	–
O=C(O)c1cn(-c2cnc3[nH]ncc3n2)c2cc(N3CCC[C@@H]3COc3ncccc3Cl)c(Cl)cc2c1=O [Example 549, (R)-6-chloro-7-(2-(((3-chloropyridin-2-yl)oxy)methyl)pyrrolidin-1-yl)-4-oxo-1-(1H-pyrazolo[3,4-b]pyrazin-5-yl)-1,4-dihydroquinoline-3-carboxylic acid]	–	≤ 1000	–
Cc1cccnc1OC[C@H]1CCCN1c1cc2c(cc1Cl)c(=O)c(C(=O)O)cn2-c1ccc2[nH]cnc2c1 [Example 444, (R)-1-(1H-benzo[d]imidazol-5-yl)-6-chloro-7-(2-(((3-methylpyridin-2-yl)oxy)methyl)pyrrolidin-1-yl)-4-oxo-1,4-dihydroquinoline-3-carboxylic acid]	–	≤ 1000	–
O=C(O)c1cn(-c2cnc(OCCO)cn2)c2cc(N3CCC[C@@H]3COc3ncccc3Cl)c(Cl)cc2c1=O [Compound 238, 6-chloro-7-[(2R)-2-[[(3-chloropyridin-2-yl)oxy]methyl]pyrrolidin-1-yl]-1-[5-(2-hydroxy-ethoxy)pyrazin-2-yl]-4-oxoquinoline-3-carboxylic acid]	≤ 1000	–	–
O=C(O)c1cn(-c2ccc(F)cc2)c2cc(N3CCC[C@@H]3COc3ccccn3)c(F)cc2c1=O [Compound 151, (R)-6-fluoro-1-(4-fluorophenyl)-4-oxo-7-(2-((pyridin-2-yloxy)methyl)pyrrolidin-1-yl)-1,4-dihydro-quinoline-3-carboxylic acid]	≤ 1000	–	–
COc1ccc(F)c(-n2cc(C(=O)O)c(=O)c3cc(F)c(N4CCC[C@@H]4COc4ccccn4)cc32)c1 [Compound 158, (R)-6-fluoro-1-(2-fluoro-5-methoxy-phenyl)-4-oxo-7-(2-((pyridin-2-yloxy)methyl)pyrrolidin-1-yl)-1,4-dihydro-quinoline-3-carboxylic acid]	1000 to 10000	–	–
O=C(O)c1cn(-c2ccc(O)c(Cl)c2)c2cc(N3CCC[C@@H]3COc3ccccn3)c(F)cc2c1=O [Example 408, (R)-1-(3-chloro-4-hydroxyphenyl)-6-fluoro-4-oxo-7-(2-((pyridin-2-yloxy)methyl)pyrrolidin-1-yl)-1,4-dihydroquinoline-3-carboxylic acid]	–	≤ 1000	–
O=C(O)c1cn(-c2cc(F)ccc2Cl)c2cc(N3CCC[C@@H]3COc3ccccn3)c(F)cc2c1=O [Compound 153, (R)-1-(2-chloro-5-fluorophenyl)-6-fluoro-4-oxo-7-(2-((pyridin-2-yloxy)methyl)pyrrolidin-1-yl)-1,4-dihydro-quinoline-3-carboxylic acid]	1000 to 10000	–	–
CN(C)[C@H]1CCN(c2ccc(-n3cc(C(=O)O)c(=O)c4cc(C#N)c(N5CCC[C@@H]5COc5ncccc5Cl)cc43)cn2)C1 [Example 562, 7-((R)-2-(((3-chloropyridin-2-yl)oxy)methyl)pyrrolidin-1-yl)-6-cyano-1-(6-((S)-3-(dimethylamino)pyrrolidin-1-yl)pyridin-3-yl)-4-oxo-1,4-dihydroquinoline-3-carboxylic acid]	–	≤ 1000	–
Nc1ccc(-n2cc(C(=O)O)c(=O)c3cc(Cl)c(N4CCC[C@@H]4COc4ncccc4Cl)cc32)c(F)n1 [Example 518, (R)-1-(6-amino-2-fluoropyridin-3-yl)-6-chloro-7-(2-(((3-chloropyridin-2-yl)oxy)methyl)pyrrolidin-1-yl)-4-oxo-1,4-dihydroquinoline-3-carboxylic acid]	–	≤ 1000	–

Reference: US12662491B2 (Redona Therapeutics, Inc., priority 2020, dated 2026)
